The text below walks through data of patent US12071469B2, “Peptide compounds for suppressing inflammation” (Duke University, priority 2011, dated 2024).

The subject of assay [1] is mice with traumatic brain injury. Put plainly: Morris water maze neurocognitive performance after traumatic brain injury. Type of assay: in vivo, mouse. Conditions: 0.05 mg/kg or 0.2 mg/kg iv at 2 h and 6 h after traumatic brain injury; days 28-31 post-injury; FIG. 4. On the procedure:
An experimental murine model for traumatic brain injury was developed. Laskowitz, et al. (2010) J. Neurotrauma, 27:1983-95. Male mice (age 12-14 weeks) were anesthetized with 4.3% isoflurane in oxygen in an anesthesia induction box for 90 seconds. The trachea was intubated and the lungs mechanically ventilated with 1.4% isoflurane in a 50/50 mixture of oxygen and nitrogen. Body temperature was maintained at 37° C. using surface heating/cooling. The top of the skull was exposed by a midline incision to identify anatomical landmarks, and a concave 3-mm metallic disc was secured to the skull surface with an adhesive, directly midline and just caudal to the bregma. […]
Another experimental procedure for measuring neurological deficits was developed using a Morris water maze. […] Latency to finding the platform and swimming speed were recorded using a computerized video tracking system (Ethovision 2.2.14; available from Noldus Information Technology, Leesburg VA).
Groups of mice received either an ApoE mimetic peptide (SEQ ID NO:4; 0.05 mg/kg) or carrier (saline) by intravenous tail vein injection at 2 hours and again at 6 hours after traumatic brain injury induced as described in Example 3. Each mouse was tested for vestibulomotor function by rotorod latency measured before and after injury, as described in Example 3. […]

The test system of assay [2] is primary rat neuronal cortical culture exposed to NMDA. Briefly: Neuroprotection from NMDA mediated cell death in primary neuronal culture (LDH release). It counts as cell-based. On the procedure: Peptides of 5 amino acids in length were applied to one or more samples of cells in parallel at concentrations ranging from about 0 to about 50 μM, such as 0.3, 3, and 30 μM. The peptides AL-10-1 (SEQ ID NO:18) and VL-17-9 (SEQ ID NO:19), which are longer peptides (12 amino acids each) were used as negative and positive controls, respectively. A series of peptides were screened in primary rat neuronal cortical culture exposed to NMDA using the method described in Aono et al., Neuroscience (2003) 116:437 and Aono et al., Neurobiology of Disease (2002) 11:214, both of which are incorporated by reference in their entirety (see Table 2). Neuroprotection from NMDA mediated cell death in primary neuronal culture was expressed as percentage decrease in LDH, 24 hours after exposure to NMDA compared to vehicle treated cultures (Table 2). LDH release is indicative of neuronal death after NMDA exposure. The peptide VR-55 (SEQ ID NO:4) reduced NMDA mediated excitotoxic cell death by approximately 19% at a concentration of 1 μM. […] The positive control peptide VL-17-9 reduced LDH release by 31%.
Dose response of the neuroprotection from NMDA excitotoxicity in primary neuronal culture was determined for ApoE mimetic peptide VR-55 (SEQ ID NO: 4). […] “0” indicates less than 5% suppression; “+” indicates 5-10% suppression; “++” indicates 11-20% suppression; and “+++” indicates greater than 20% suppression. In addition to VL-17-9, several other candidates had greater than 20% suppression, including VR-55, VL-5-1, VL-5-2 and VR-52.
(Release of lactate dehydrogenase indicates damage to the cell membrane.)

Consider Ac-VSRRR-NH2 [VR-55, Ac-VSRRR-NH2], for which the “neurocognitive outcomes (Morris water maze latency)” value in assay [1] is on record as “improved neurocognitive outcomes”. Moreover, in assay [2] (FIG. 6), the “dose response of percent suppression of LDH release after NMDA exposure” value is given as “dose dependent”. For the same substance, the figures for the “percentage decrease in LDH, 24 hours after exposure to NMDA compared to vehicle treated cultures” value in assay [2] (peptide 0.1 μM), in assay [2] (peptide 0.3 μM) and in assay [2] (peptide 3 μM) were −2.85%, 1.50% and 15.91%, respectively. Further, the “suppression of LDH release, cumulative data (class)” value in assay [2] (peptide 1 μM, cumulative data) is recorded as “+++ (greater than 20% suppression)”.
